Results from US8546440B2, “Substituted bicyclic imidazole derivatives as gamma secretase modulators” (Janssen Pharmaceuticals, Inc., priority 2008, dated 2013).

Tests used:
Aβtotal [1] = assay: Screening for γ-secretase-modulating activity, Method 1: Aβtotal sandwich ELISA in supernatant of SKNBE2 cells carrying APP 695 wild type (Tables 12a, 12b); assay type: cell-based
How it was run: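 SKNBE2 cells expressing wild-type APP 695 were plated a day ahead, then exposed to compound in Ultraculture with 1% glutamine for 18 hours. Supernatant Aβtotal captured on 6E10 overnight at 4° C, detected with biotinylated 4G8 and streptavidin-peroxidase with a fluorogenic substrate. IC50 from 4-parameter dose-response fits.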

Aβtotal [2] = assay: Demonstration of in vivo efficacy: Aβtotal lowering in brain after single oral dose (Table 13); conditions: mouse brain soluble fraction, mean, compared to untreated animals
Source text: (§1) To determine whether acute administration of an Aβ42 lowering agent would reduce Aβ42 levels in vivo, non-transgenic rodents, e.g. mice or rats were used. Alternatively, two to three month old Tg2576 mice expressing APP695 containing the “Swedish” variant can be used or a transgenic mouse model developed by Dr. Fred Van Leuven (K. U. Leuven, Belgium) and co-workers, with neuron-specific expression of a clinical mutant of the human amyloid precursor protein [V717I] (Moechars et al., 1999 J. Biol. Chem. 274, 6483). Young transgenic mice have high levels of Aβ in the brain but no detectable Aβ deposition. At approximately 6-8 months of age, the transgenic mice start to display spontaneous, progressive accumulation of β-amyloid (Aβ) in the brain, eventually resulting in amyloid plaques within the subiculum, hippocampus and cortex. Animals treated with the Aβ42 lowering agent were examined and compared to those untreated or treated with vehicle and brain levels of soluble Aβ42 and total Aβ would be quantitated by standard techniques, for example, using ELISA. Treatment periods varied from hours to days and were adjusted based on the results of the Aβ42 lowering once a time course of onset of effect could be established.
(§2) A typical protocol for measuring Aβ42 lowering in vivo is shown but it is only one of many variations that could be used to optimize the levels of detectable Aβ. For example, Aβ42 lowering compounds were formulated in 20% of Captisol® (a sulfobutyl ether of β-cyclodextrin) in water or 20% hydroxypropyl β cyclodextrin. The Aβ42 lowering agents were administered as a single oral dose or by any acceptable route of administration to overnight fasted animals. After four hours, the animals were sacrificed and Aβ42 levels were analysed.
(§3) Blood was collected by decapitation and exsanguinations in EDTA-treated collection tubes. Blood was centrifuged at 1900 g for 10 minutes at 4° C. and the plasma recovered and flash frozen for later analysis. The brain was removed from the cranium and hindbrain. The cerebellum was removed and the left and right hemisphere were separated. The left hemisphere was stored at −18° C. for quantitative analysis of test compound levels. The right hemisphere was rinsed with phosphate-buffered saline (PBS) buffer and immediately frozen on dry ice and stored at −80° C. until homogenization for biochemical assays.
Mouse brains were resuspended in 10 volumes of 0.4% DEA (diethylamine)/50 mM NaCl pH 10 (for non-transgenic animals) or 0.1% 3-[3-cholamidopropyl)-dimethyl-ammonio]-1-propanesulfonate (CHAPS) in tris buffered saline (TBS) (for transgenic animals) containing protease inhibitors (Roche-11873580001 or 04693159001) per gram of tissue, e.g. for 0.158 g brain, add 1.58 ml of 0.4% DEA. All samples were sonicated for 30 seconds on ice at 20% power output (pulse mode). Homogenates were centrifuged at 221.300×g for 50 min. The resulting high speed supernatants were then transferred to fresh tubes and were optionally further purified before the next step. A portion of the supernatant was neutralized with 10% 0.5 M Tris-HCl and this was used to quantify Aβtotal. […]
In this model at least 20% Aβ42 lowering compared to untreated animals would be advantageous.

Aβ42 [3] = assay: Screening for γ-secretase-modulating activity, Method 1: Aβ42 sandwich ELISA in supernatant of SKNBE2 cells carrying APP 695 wild type (Tables 12a, 12b); assay type: cell-based
How it was run: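 SKNBE2 cells expressing wild-type APP695 were treated with compound for 18 h, and secreted Aβ42 in the medium was quantified by sandwich ELISA (C-terminal-selective capture, biotinylated 3D6 detection, TMB read at 450 nm). IC50 came from 4-parameter fits of % inhibition or % of untreated control; toxicity was checked by WST-1.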

Aβ42 [4] = assay: Demonstration of in vivo efficacy: Aβ42 lowering in brain after single oral dose (Table 13); conditions: mouse brain soluble fraction, ELISA, mean, compared to untreated animals
Source text: as §1, §2, §3
Mouse brains were resuspended in 10 volumes of 0.4% DEA (diethylamine)/50 mM NaCl pH 10 (for non-transgenic animals) or 0.1% 3-[3-cholamidopropyl)-dimethyl-ammonio]-1-propanesulfonate (CHAPS) in tris buffered saline (TBS) (for transgenic animals) containing protease inhibitors (Roche-11873580001 or 04693159001) per gram of tissue, e.g. for 0.158 g brain, add 1.58 ml of 0.4% DEA. All samples were sonicated for 30 seconds on ice at 20% power output (pulse mode). Homogenates were centrifuged at 221.300×g for 50 min. The resulting high speed supernatants were then transferred to fresh tubes and were optionally further purified before the next step. A portion of the supernatant was neutralized with 10% 0.5 M Tris-HCl and this was used to quantify Aβtotal.
The obtained supernatants were purified with Water Oasis HLB reverse phase columns (Waters Corp., Milford, Mass.) to remove non-specific immunoreactive material from the brain lysates prior subsequent Aβ detection. Using a vacuum manifold, all solutions were passed through the columns at a rate of approximately 1 ml per minute, so the vacuum pressure was adjusted accordingly throughout the procedure. Columns were preconditioned with 1 ml of 100% MeOH, before equilibration with 1 ml of H2O. Non-neutralized brain lysates were loaded onto the columns. The loaded samples were then washed twice with the first wash performed with 1 ml of 5% MeOH, and the second wash with 1 ml of 30% MeOH. Finally, the Aβ was eluted from the columns and into 100×30 mm glass tubes, with a solution of 90% MeOH with 2% NH4OH. […]

Aβtotal [5] = assay: Screening for γ-secretase-modulating activity, Method 2: Aβtotal Alphalisa in supernatant of SKNBE2 cells carrying APP 695 wild type (Table 12c); assay type: cell-based; conditions: Method 2, Table 12c, incubated overnight
Procedure: (§4) Screening was carried out using SKNBE2 cells carrying the APP 695—wild type, grown in Dulbecco's Modified Eagle's Medium/Nutrient mixture F-12 (DMEM/NUT-mix F-12) (HAM) provided by Invitrogen (cat no. 10371-029) containing 5% Serum/Fe supplemented with 1% non-essential amino acids, 1-glutamine 2 mM, Hepes 15 mM, penicillin 50 U/ml (units/ml) en streptomycin 50 μg/ml. Cells were grown to near confluency.
(§5) The screening was performed using a modification of the assay as described in Citron et al (1997) Nature Medicine 3: 67. Briefly, cells were plated in a 384-well plate at 10^4 cells/well in Ultraculture (Lonza, BE12-725F) supplemented with 1% glutamine (Invitrogen, 25030-024), 1% non-essential amino acid (NEAA), penicillin 50 U/ml en streptomycin 50 μg/ml in the presence of test compound at different test concentrations. The cell/compound mixture was incubated overnight at 37° C., 5% CO2, The next day the media were assayed by two sandwich immuno-assays, for Aβ42 and Aβtotal.
(§6) Aβtotal and Aβ42 concentrations were quantified in the cell supernatant using the Aphalisa technology (Perkin Elmer). Alphalisa is a sandwich assay using biotinylated antibody attached to streptavidin coated donorbeads and antibody conjugated to acceptor beads. In the presence of antigen, the beads come into close proximity. The excitation of the donor beads provokes the release of singlet oxygen molecules that trigger a cascade of energy transfer in the acceptor beads, resulting in light emission. To quantify the amount of Aβ42 in the cell supernatant, monoclonal antibody specific to the C-terminus of Aβ42 (JRF/cAβ42/26) was coupled to the receptor beads and biotinylated antibody specific to the N-terminus of Aβ (JRF/AβN/25) was used to react with the donor beads. To quantify the amount of Aβtotal in the cell supernatant, monoclonal antibody specific to the N-terminus of Aβ (JRF/AβN/25) was coupled to the receptor beads and biotinylated antibody specific to the mid region of Aβ (biotinylated 4G8) was used to react with the donor beads.
(§7) To obtain the values reported in Table 12c, the data are calculated as percentage of the maximum amount of amyloid Beta 42 measured in the absence of the test compound. The sigmoidal dose response curves were analyzed using non-linear regression analysis with percentage of the control plotted against the log concentration of the compound. A 4-parameter equation was used to determine the IC50.

Aβ42 [6] = assay: Screening for γ-secretase-modulating activity, Method 2: Aβ42 Alphalisa in supernatant of SKNBE2 cells carrying APP 695 wild type (Table 12c); assay type: cell-based; conditions: Method 2, Table 12c, incubated overnight
Procedure: as §4, §5, §6, §7

[7] = Homo sapiens, Table 12b, Method 1, SKNBE2 cells carrying APP 695 wild type, cell supernatant ELISA, averaged IC50 values
[8] = Homo sapiens, Table 12b, Method 1, SKNBE2 cells carrying APP 695 wild type, cell supernatant ELISA, averaged IC50 values, percentage of control vs log concentration
[9] = Homo sapiens, Method 1, Table 12a, SKNBE2 cells carrying APP 695 wild type, compounds 18 hours, ELISA, curve top and bottom fixed to 100 and 0, hill slope 1
[10] = Table 12b, Method 1, SKNBE2 cells carrying APP 695 wild type, cell supernatant ELISA, averaged IC50 values
[11] = Table 12b, Method 1, SKNBE2 cells carrying APP 695 wild type, cell supernatant ELISA, averaged IC50 values, percentage of control vs log concentration

Compound	IC50 (Aβtotal [1]; [7]) [µM]	Aβtotal (% Ctrl)_Mean (Aβtotal [2]) [% Ctrl]	IC50 (Aβ42 [3]; [8]) [µM]	Aβ42 (% Ctrl)_Mean (Aβ42 [4]) [% Ctrl]	IC50 (Aβtotal [1]; [9]) [µM]	IC50 (Aβ42 [3]; [9]) [µM]	IC50 (Aβtotal [1]; [10]) [µM]	IC50 (Aβ42 [3]; [11]) [µM]	IC50 (Aβtotal [5]) [µM]	IC50 (Aβ42 [6]) [µM]	IC50 (Aβtotal [5]; Homo sapiens) [µM]	IC50 (Aβ42 [6]; Homo sapiens) [µM]
COc1ccc(C)c(-c2cn3cccc(Nc4ccc(-n5cnc(C)n5)c(F)c4)c3n2)c1 [Compound 94]	> 3.02	101	0.115	96	–	–	–	–	–	–	–	–
COc1cccc(-c2nc3c(Nc4ccc(-n5cnc(C)c5)c(OC)c4)cccn3c2C)c1 [Compound 34]	> 3.02	100	0.009	63	> 3	0.009	–	–	–	–	–	–
COc1ccccc1-c1cn2cccc(Nc3ccc(-n4cnc(C)c4)c(OC)c3)c2n1 [Compound 32]	> 5.01	113	0.105	81	> 5	0.114	–	–	–	–	–	–
Cc1ncn(-c2ccc(Nc3cccn4cc(-c5cc(C(F)(F)F)ccc5C)nc34)cc2F)n1 [Compound 74]	> 3.02	102	0.123	95	–	–	–	–	–	–	–	–
COc1cc(Nc2cccn3c(C)c(-c4ccccc4F)nc23)ccc1-n1cnc(C)c1 [Compound 18]	> 10	101	0.025	73	> 10	0.025	–	–	–	–	–	–
Cc1ncn(-c2ccc(Nc3cccn4cc(-c5ccc(F)cc5C)nc34)cn2)n1 [Compound 98]	–	97	–	84	–	–	> 3.02	0.032	–	–	–	–
COc1cc(Nc2cc(Cl)nn3cc(-c4cc(F)ccc4C)nc23)ccc1-n1cnc(C)c1 [Compound 157]	–	–	–	–	–	–	> 3.02	0.102	7.41	0.05	–	–
COc1cc(Nc2nccn3cc(-c4ccc(F)cc4C)nc23)ccc1-n1cnc(C)n1 [Compound 176]	> 10	–	0.324	–	–	–	–	–	–	–	8.32	0.107
COc1cc(Nc2nccn3cc(-c4ccc(F)cc4)nc23)ccc1-n1cnc(C)c1 [Compound 175]	–	–	–	–	–	–	> 3.02	0.041	5.25	0.072	–	–
CC(=O)N(C)Cc1c(-c2ccccc2Cl)nc2c(Nc3ccc(-n4cnc(C)c4)c(F)c3)cccn12 [Compound 102]	> 3.02	–	0.01	–	–	–	–	–	–	–	> 10	0.014
CCOC(=O)c1cn2cc(C(F)(F)F)cc(Nc3ccc(-n4cnc(C)c4)c(OC)c3)c2n1 [Compound 155]	–	–	–	–	–	–	> 3.02	0.024	> 10	0.028	–	–
Cc1cn(-c2ccc(Nc3cccn4cc(C5CCOCC5)nc34)cc2F)cn1 [Compound 118]	> 3.02	–	0.331	–	–	–	–	–	–	–	> 10	0.372
Cc1cn(-c2ccc(Nc3cc(F)cn4cc(C5CCOCC5)nc34)cc2F)cn1 [Compound 149]	–	–	–	–	–	–	> 10	0.389	> 10	0.174	–	–
COc1cc(Nc2cccn3cc(CC4CCOCC4)nc23)ccc1-n1cnc(C)n1 [Compound 137]	> 3.02	–	1.38	–	–	–	–	–	–	–	> 10	0.871
COc1cc(Nc2cccn3cc(-c4cc(C#N)ccc4C)nc23)ccc1-n1cnc(C)n1 [Compound 135]	> 10	–	0.631	–	–	–	–	–	–	–	> 10	0.102
